Like-named read-outs stand apart in the source and are kept apart here. Where a SMILES comes first, the peptide text is derived from it. [ ]: non-standard residue; d: D form. Arg(NO2) = N=C(NCCC[C@H](N)C(=O)O)N[N+](=O)[O-]; Aib = CC(C)(N)C(=O)O

Series [1] has as its system PLP-induced relapsing-remitting experimental autoimmune encephalomyelitis (EAE) model. Nature of the series: PLP-induced relapsing-remitting EAE model. Type of series: in vivo. On the set-up: CSmax during relapse (mean ± SEM) / Area under curve (mean ± SEM): scale not given here. The settings on record: 4 mg/kg s.c. The protocol:
To further compare the activity of the various ApoE analogs, the efficacy of the analogs was assessed in a PLP-induced relapsing-remitting experimental autoimmune encephalomyelitis (EAE) model. […] The second dose was administered the next day followed by three times a week (M, W, F). Relapse rate represents the number of animals experiencing a relapse, while the CSmax indicates the maximal clinical score during relapse. Area under curve represents the area under the curve in a plot of clinical score vs. days post-inoculation (out to 60 days). […] The improvement in relapse rate and clinical score in the EAE model by ApoE analog treatment may be due, in part, to the remyelination-promoting effect of the ApoE analogs.

For a further series, the target named is T1, Calcineurin (Homo sapiens, UniProt Q08209).
T1 construct: purchased BioMol AK-804
Description: Cell-free calcineurin phosphatase activity assay (BioMol kit). Type of series: biochemical. The note with it: various concentrations. On the procedure:
FIG. 14. ApoE analogs bind directly to calcineurin and inhibit its activity. […] (B) Immunoprecipitation of human brain lysate with a biotin-COG 133 conjugate. Lane 1=markers; lane 2=clear bead; lane 3=biotin-COG 133 bead conjugate; and lane 4=10 μg lysate. (C) Immunoprecipitation of different glial cultures with a biotin-COG 133 conjugate. Lane 1=markers; lane 2=astrocyte; lane 3=microglia; and lane 4=oligodendrocyte precursor cells (OPC). Blots in B and C were probed for calcineurin (PP2B).
Calcineurin activity was measured in a cell-free in vitro assay in the presence of various concentrations of COG 133 (SEQ ID NO: 1), COG 112 (SEQ ID NO: 5), COG 68 (SEQ ID NO: 7), COG 125 (Ac-AS(Aib)LRKL(Aib)KR—COOH; SEQ ID NO: 8), or antennapedia (antp), the prefix peptide for COG 112. […] Using a BioMol Calcineurin Phosphatase Activity Kit (Cat. #AK-804), the assay was conducted according to manufacturer's instructions. […] This inhibition of calcineurin activity by ApoE analogs is mediated by a direct interaction of the ApoE analog with the phosphatase.

The subject of the next series is enriched OPC cultures. Nature of the series: Number of mature oligodendrocytes after differentiation of enriched OPC culture. Type of series: cell-based, rat. The note with it: 2 μM COG 133, 1 μM COG 112 or 1 μM COG 68 for four days, then six days differentiation without analog. The protocol: FIG. 11. ApoE analogs increase the number of mature oligodendrocytes in culture. ApoE analogs (COG 133, COG 112, and COG 68) were added to enriched OPC culture in proliferation media for four days. Cultures were then differentiated in the absence of the ApoE analogs. Cells were labeled with a GST-π antibody to detect mature oligodendrocytes.
Since COG 112 increased the proliferation of OPCs, we next examined whether the ApoE analogs could also increase the number of mature oligodendrocytes. Enriched OPC cultures were prepared as described for the previous experiment. 2 μM COG 133 (SEQ ID NO: 1), 1 μM COG 112 (SEQ ID NO: 5), or 1 μM COG 68 (Ac-[…]-NH2; SEQ ID NO: 7) were added to the enriched OPC cultures in proliferation media for four days. The media was then replaced with differentiation medium without the ApoE analogs for an additional six days. Cells were labeled with a GST-π antibody to detect mature oligodendrocytes.

The test system of another series is microglia cell line BV2. Nature of the series: LPS-induced NO and TNF-α release in BV2 microglia. The format is cell-based, murine. The note with it: LPS 10 ng/ml, 24 hours. On the procedure:
FIG. 16. […] Series concentrations of ApoE analogs were added to culture medium together with LPS (10 ng/ml). 24 hours later, culture medium was collected for measurement of NO by Griess assay or TNF-α by ELISA. […] ApoE analogs (10 μM) were added to the cell medium of human macrophage U937 5 minutes prior to PMA+LPS treatment. The release of superoxide in culture medium was measured by Luminol assay kit (Calbiochem).
The murine microglia cell line BV2 was used as the first screening platform to compare the potency of ApoE analogs in anti-inflammatory activity. In response to LPS, BV2 produces amounts of reactive radical NO and inflammatory cytokines, such as TNF-α and IL-6. We stimulated the cells with LPS (10 ng/ml) in the presence of several concentrations of each of the ApoE analogs. We measured NO in medium by Griess assay and TNF-α by ELISA 24 hours after LPS stimulation of the cells. The IC50 value was calculated for each of the ApoE analogs.

Series [2] in a line: Anti-inflammatory properties in vitro or in vivo (general statement). An excerpt:
The following ApoE analogs, COG 112, COG 1410, COG 241, COG 248, COG 68, and COG 345, have been identified as having improved properties as compared to the ApoE peptide, COG 133.

Series [3] concerns oligodendrocyte precursor cells (OPC)/microglia mixed culture. Nature of the series: LPS-induced OPC cell death in OPC/microglia mixed culture. The format is cell-based, rat. The note with it: 1 μM, LPS 10 ng/ml, 24 hours. On the procedure: FIG. 9. COG 112 protects OPCs from LPS-induced cell death in OPC/microglia mixed culture. LPS (final conc. 10 ng/ml) was added to an OPC/microglia mixed culture with or without 1 μM COG 112. The prefix peptide of COG 112, antennapedia, was used as a negative control. Cells were fixed with 4% formaldehyde and stained with the OPC marker, NG2, and counterstained with hoescht. (A) LPS-treated cultures; (B) LPS+antennapedia (Antp)-treated cultures; (C) LPS+COG 112-treated cultures; (D) Bar graph summarizing the number of NG2+ cells per field in each condition. ** p<0.01.
FIG. 19. COG 345 promotes remyelination in lysolecithin-induced demyelination model of cerebellum slices. Significant demyelination was induced by lysolecithin (0.5 mg/ml) in cerebellar slices. COG 112 or COG 345 (1 μM) was added on day 3 when full demyelination was achieved. 4 days later, the slices were fixed and double stained with myelin marker MBP (green) and Purkinje cell marker calbindin (red). (A) Untreated-slices; (B) lysolecithin-treated slices; (C) COG 112-treated slices after lysolecithin exposure; (D) COG 345-treated slices after lysolecithin exposure. E-F. ApoE analogs protect OPCs from LPS-induced cell death in OPC/microglia mixed culture. OPCs and microglia derived from brain culture of P2 rat pups were plated in 96-well plates in 1:1 ratio. LPS (10 ng/ml) together with 1 μM of the indicated ApoE analogs was added to the cultures. After 24 hours, OPC cell death was quantified by LDH assay (E) and MTT assay (F). Statistical analysis was conducted by one-way ANOVA followed by Dunnett comparison vs. LPS group. * P<0.01, ** P<0.001, n=3.
A primary culture prepared from the brains of P2 Sprague-Dawley rat pups was grown for seven days. Microglia and OPCs were shaken off from the primary culture with an orbital shaker at 150˜200 rpm. The OPCs and microglia were plated in 24-well plates at a 1:1 ratio with 5×10^4 cells per well of each cell type. After 24 hours, LPS (final conc. 10 ng/ml) was added with or without 1 μM COG 112. The prefix peptide of COG 112, antennapedia, was used as a negative control. After incubation for 72 hours, the medium was removed and cells were fixed with 4% formaldehyde and stained with the OPC marker, NG2, and counterstained with hoescht. Five fields from each of the wells were randomly chosen to count the number of NG2-positive cells.
To further assess the ability of the novel ApoE analogs to promote remyelination, the effect of the analogs on OPC survival was assessed in an OPC/microglia mixed culture. OPC and microglia derived from primary culture of P2 rat pup brain were plated on 96-well plates in 1:1 ratio. […] After 24 hours, cell death of OPC was quantified by both LDH and MTT assays.

A further series is described as follows: Maximum tolerated dose. Type of series: in vivo. The settings on record: in vivo. The source says: To fully evaluate the use of ApoE analogs as therapeutic compounds, the margin of safety should also be determined. Towards that end, we determined the maximum tolerated dose of COG 112, COG 248, and COG 345 when administered by intravenous and subcutaneous injection.

With “acetyl-Aib-LRKL-Aib-(n acetyl K)RLL-amide (Ac-[Aib]LRKL[Aib]K(Ac)RLL-NH2; SMILES CC(=O)NCCCC[C@H](NC(=O)C(C)(C)NC(=O)[C@H](CC(C)C)NC(=O)[C@H](CCCCN)NC(=O)[C@H](CCCNC(=N)N)NC(=O)[C@H](CC(C)C)NC(=O)C(C)(C)NC(C)=O)C(=O)N[C@@H](CCCNC(=N)N)C(=O)N[C@@H](CC(C)C)C(=O)N[C@@H](CC(C)C)C(N)=O) [COG 241]”, the “Area under curve (mean ± SEM)” value in series [1] (clinical score vs days post-inoculation, out to 60 days) is listed as 13.5 ± 2.6. For the same molecule, in series [1] (maximal clinical score during relapse), the “CSmax during relapse (mean ± SEM)” value is listed as 2.3 ± 0.8. The “Relapse Rate” value in series [1] (number of animals experiencing a relapse) is on record as 8/15.
In the case of “acetyl-RRLSYSRRRFLRVRLASHLRKLRKRLL-amide (Ac-RRLSYSRRRFLRVRLASHLRKLRKRLL-NH2) [COG 68, ApoE peptide linked to the protein transduction domain SynB3]”, in the series with Calcineurin, the “inhibition of calcineurin activity” value is listed as “dose-dependent inhibition”. In the series on enriched OPC cultures, the “number of mature oligodendrocytes (GST-π)” value is listed as “significantly increased the number of mature oligodendrocytes”. For the same molecule, the “activity in suppression of microglia activation (NO by Griess assay, TNF-α by ELISA)” value with microglia cell line BV2 is given as “clearly superior to that of COG 133”.
As to “acetyl-AS-Aib-LRKL-Aib-KRLL-amide [COG 1410]”, the “activity in suppression of microglia activation (NO by Griess assay, TNF-α by ELISA)” value with microglia cell line BV2 is “clearly superior to that of COG 133”.
“acetyl-AS-Aib-LRKL-Aib-KR-amide (Ac-AS[Aib]LRKL[Aib]KR-NH2; SMILES CC(=O)N[C@@H](C)C(=O)N[C@@H](CO)C(=O)NC(C)(C)C(=O)N[C@@H](CC(C)C)C(=O)N[C@@H](CCCNC(=N)N)C(=O)N[C@@H](CCCCN)C(=O)N[C@@H](CC(C)C)C(=O)NC(C)(C)C(=O)N[C@@H](CCCCN)C(=O)N[C@@H](CCCNC(=N)N)C(N)=O) [COG 125, reference compound]”: the “inhibition of calcineurin activity” value in the series with Calcineurin is “Inactive”. The anti-inflammatory properties result in series [2] is reported as “did not exhibit any anti-inflammatory properties”.
For the molecule `CCCCCCCCc1ccc(CCC(N)(CO)CO)cc1` [FTY720, reference compound], the “OPC cell death by LDH and MTT assays” value in series [3] is reported as “did not show a clear protective effect”.
With `CC(=O)N[C@@H](CC(C)C)C(=O)N[C@@H](CCCNC(=N)N)C(=O)N[C@H](C(=O)N[C@@H](CCCNC(=N)N)C(=O)N[C@@H](CC(C)C)C(=O)N[C@@H](C)C(=O)N[C@@H](CO)C(=O)NC(C)(C)C(=O)N[C@@H](CC(C)C)C(=O)N[C@@H](CCCNC(=N)N)C(=O)N[C@@H](CCCCN)C(=O)N[C@@H](CC(C)C)C(=O)N[C@@H](CCCNC(=N)N)C(=O)N[C@@H](CCCCN)C(=O)N[C@@H](CCCNC(=N)N[N+](=O)[O-])C(=O)N[C@@H](CC(C)C)C(=O)N[C@@H](CC(C)C)C(N)=O)C(C)C` [COG 248, acetyl-LRVRLAS-Aib-LRKLRK(nitro-Arg)LL-amide] (Ac-LRVRLAS[Aib]LRKLRK[Arg(NO2)]LL-NH2), the MTD is more than 150 mg/kg in “Maximum tolerated dose” (sc, subcutaneous injection, read-out: Maximum Tolerated Dose Subcutaneous) and 25 mg/kg in “Maximum tolerated dose” (intravenous injection, read-out: Maximum Tolerated Dose Intravenous).

The values are drawn from patent publication US8629242B2, “Methods of inhibiting calcineurin with ApoE analogs” (Cognosci, Inc., priority 2007, dated 2014).
